“Also recorded” adds a separate entry of the source.
Key:
[1] = test system: C6-IRG1-9 rat glioma cells; assay: C6-IRG1-9 rat glioma cell proliferation (CyQuant); assay type: cell-based; settings: various concentrations, 48 hrs; FIG. 3
Experimental: Tumor Cell Proliferation Assay. This assay was used to assess the anti-tumor properties of a therapeutic agent in vitro. In a typical proliferation assay, cells were cultured to near confluency in the appropriate media. Subsequently, the cells were trypsinized and plated onto 96-well plates at 2,000 or 5,000 cell per well. The cells were cultured for 48 to 96 hours in the presence or absence of the therapeutic agent. Cell proliferation was then determined using spectrophotometry (MTT assay, BrdU assay) or fluorimetry (Cyquant assay).
Inhibition of C6-IRG1-9 Rat Glioma cell proliferation. C6-IRG1-9 cells are rat C6 glioma cells that have been transfected to overexpress IRG1. Overexpression of IRG1 is maintained by culturing the cells in DMEM media containing 0.55 μg/mL puromycin. For the proliferation assays, the cells were plated onto a 96-well plate at a density of 2,000 cells/well. The cells were allowed to adhere overnight; they were subsequently treated with various concentrations of compounds of Formula (2) for 48 hrs. At the end of the incubation period, the number of cells is assessed using the CyQuant Cell Proliferation kit (Thermo Fisher) according to the manufacturer's instructions. The results, shown in FIG. 3, indicate that compounds of Formula (2) are able to reduce or abrogate growth of C6-IRG1-9 cells. In FIG. 3, cell proliferation is expressed as % Untreated Control, defined as: (t−s)*100/(c−s), where t is the number of cells present in a treated well at the end of the incubation period, c is the number of cells present in an untreated well at the end of the incubation period, and s is the initial number of cells in the wells prior to initiation of treatment.

[2] = test system: TCR-activated hCD8+ T cells; assay: CD8+ T cell proliferation (CFSE dilution, flow cytometry); assay type: cell-based, human; settings: 10 nM; versus untreated TCR-activated control cells; FIG. 4
Experimental: Augmentation of CD8^+ T Cell Proliferation. Naïve hCD8^+ T cells were isolated from commercially available buffy coats using magnetic separation and the appropriate kit from Miltenyi Biotec. Cells were then subject to TCR activation using a cocktail of anti-CD2/anti-CD3/anti-CD28 antibodies. Untreated control and treated cells were included in the experiment. The cells were cultured for 72 hrs in TexMACS media (Miltenyi Biotec) without IL-2 and for an additional 48 hrs in TexMACS media containing 20 U human IL-2/mL. Cell division was assessed by flow cytometry using the carboxyfluorescein succimidyl ester (CFSE) dilution method.

[3] = test system: trimethylated lysine site 4 of histone 3 (H3K4me3); assay: Epigenetic modification, Western immunoblotting of H3K4me3; assay type: cell-based, human; settings: 10 μM, 72 hrs, TCR-activated hCD8+ T cells; FIG. 5
Experimental: Epigenetic Modifications. The ability of a therapeutic agent to alter acetylation and/or methylation of histones was assessed by Western Immunoblotting. Briefly, immune and other type cells were collected after being exposed to the therapeutic agent or vehicle control for a specific period of time, typically 24-72 hrs. They were then lysed and cell lysates from control and treated cells contained equal amounts of proteins were subjected to SDS-PAGE electrophoresis. The presence of acetylated and methylated histone sites was determined by Western Immunoblotting using appropriate antibodies.
Epigenetic Modification. TCR-activated hCD8^+ T cells were exposed to 0 or 10 µM Compound (6) for 72 hrs prior to lysing. Equal amounts of cell lysates were subjected to gel electrophoresis and Western immunoblotting against trimethylated lysine site 4 of histone 3 (H3K4me3). The experiment also included cell lysates from naïve cells. Image J was used for protein quantification. Western immunoblotting against histone 3 (H3) was also performed for normalization purposes. […] Exposure of the hCD8^+ T cells to 10 μM Compound (6) led to the depletion of trimethylated H3K4. H3K4me3 is commonly associated with activation of transcription.

[4] = test system: TNFα secretion from LPS-stimulated human monocyte derived macrophages (hMDMs); assay: Inhibition of TNFα secretion (in vitro inflammation assay), ELISA; assay type: cell-based; settings: 1 μg/mL LPS, 6 h, concentrations ≥500 μM, FIG. 2
Experimental: In Vitro Inflammation Assay. In vitro inflammation was assessed by measuring the concentration of TNFα in the conditioned media of macrophages stimulated with 0.1-1 μg/mL LPS in the presence or absence of the compound of interest after 4-6 hrs.
Inhibition of TNFα secretion. hMDMs were pretreated with various concentrations of Compound (6) for 15 min and then stimulated with 1 μg/mL LPS. Conditioned media were collected 6 h later and TNFα concentrations were determined by ELISA.

[5] = molecular target: T1, IRG1 (Homo sapiens, UniProt A6NK06); assay: Itaconic acid synthesis by LPS-stimulated macrophages (inhibition of IRG1), GC-MS; assay type: cell-based; settings: LPS-stimulated hMDMs; pretreated 50, 100, 500 μM for 15 min, LPS 8 hrs; FIG. 1
T1 construct: Human monocytes, isolated from peripheral blood and differentiated into macrophages; endogenous in cells; host or cells: human monocyte-derived macrophages (hMDMs), M-CSF differentiated, LPS stimulated
T1 sequence (A6NK06 1-481): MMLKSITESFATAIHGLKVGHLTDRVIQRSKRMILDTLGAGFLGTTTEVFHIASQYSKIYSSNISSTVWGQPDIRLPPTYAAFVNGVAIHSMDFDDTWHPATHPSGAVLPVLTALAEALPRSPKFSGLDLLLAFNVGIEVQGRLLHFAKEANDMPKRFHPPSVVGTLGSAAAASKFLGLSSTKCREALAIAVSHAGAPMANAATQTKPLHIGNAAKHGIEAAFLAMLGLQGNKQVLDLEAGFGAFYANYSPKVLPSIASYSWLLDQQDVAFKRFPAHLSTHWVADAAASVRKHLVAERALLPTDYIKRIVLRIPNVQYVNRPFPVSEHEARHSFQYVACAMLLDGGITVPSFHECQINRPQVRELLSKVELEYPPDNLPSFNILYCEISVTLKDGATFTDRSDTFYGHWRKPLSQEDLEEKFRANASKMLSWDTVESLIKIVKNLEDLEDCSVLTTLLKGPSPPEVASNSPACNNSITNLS
Experimental: Inhibition of IRG1. Itaconic acid levels are a measure of IRG1 expression/activity. To determine the activity of IRG, hMDMs were stimulated with 100 ng/ml LPS for 8 hrs in the presence or absence of the therapeutic agent. Gas chromatography-mass spectroscopy (GC-MS) was used to estimate the intracellular and extracellular concentration of the itaconic acid. In a typical assay, 1-5×10^6 cells were plated onto a 6-well plate and allowed to adhere overnight. The cells were then stimulated with 0.1-1 μg/mL LPS in the presence or absence of the compound of interest for 8 hrs. The cells were then washed and metabolites were extracted using methanol/water and acetonitrile additions. The aqueous phase of the mixture was dried and metabolites present were derivatized prior to the detection by GC-MS.
Itaconic Acid Synthesis by LPS-Stimulated Macrophages after Treatment with Compound (6). Human monocytes, isolated from peripheral blood and differentiated into macrophages in the presence of 100 ng/ml monocyte colony-stimulating factor (M-CSF) for 5 days, were plated onto a 6-well plate at a density of 1×10^6 cells/well. The cells were allowed to adhere overnight. […] Derivatized metabolites were analyzed by GC-MS. The amount of itaconic acid present in the samples was determined after peak integration. […]

[6] = test system: M-MDSCs in CT26 tumors; assay: Tumor immunophenotyping of CT26 tumors (MDSCs); assay type: in vivo, mouse; settings: 0.2 mg/kg ip, twice a day; tumors 250-1500 mm^3; FIG. 7
Experimental: Tumor Immunophenotyping. To determine the effect of a therapeutic agent on a specific immune cell type in vivo, syngeneic tumor models were employed. In a typical experiment, tumors were allowed to grow to a certain size and were then treated for a specific number of days prior to termination. At the end of the experiment, animals were euthanized, tumors were excised and single cell suspensions were immediately obtained through dissociation of tumor tissues with collagenase. Tumor cell suspensions were then subject to FACS analysis in order to determine the presence of various biomarkers.
Tumor Immunophenotyping of CT26 Tumors. CT26-tumor bearing mice treated with either vehicle control or 0.2 mg/kg Compound (6) (ip, twice a day) were euthanized when the tumors had reached a size of 250-1500 mm^3. Tumors were excised and single cell suspensions were obtained using the tumor dissociation kit from Miltenyi Biotec per manufacturer's instructions. The suspensions were analyzed for the presence of MDSCs.

[7] = test system: TCR-activated hCD8+ T cells; assay: hCD8+ T cell differentiation into effector T cells (IFNγ and GZMB release, ELISA); assay type: cell-based, human
Experimental: Differentiation of T Cells. The ability of T cells to differentiate from a naïve to an effector state was assessed by measuring the levels of IFNγ or GZMB synthesis following activation of the cells using a cocktail of anti-CD2/anti-CD3/anti-CD28 antibodies. Expression of IFNγ, GZMB, and other effector cytokines was measured by determining their concentration in the conditioned media 24-72 hrs after initiation of activation or by estimating the % cells expressing these cytokines using fluorescence-activated cell sorting (FACS).
Augmentation of hCD8^+ T Cell Differentiation into Effector T Cells. Naïve CD8+ T cells were isolated from human buffy coats using magnetic separation and the appropriate kit from Miltenyi Biotec. Cells were then activated using a cocktail of anti-CD2/anti-CD3/anti-CD28 antibodies. Differentiation of the cells into effector T cells was assessed by determining the levels of IFNγ and GZMB released into the media at 24 and 72 hrs, respectively using appropriate ELISA kits. Cytokine concentrations were normalized per number of cells present and expressed as % Untreated Control.

[8] = test system: CT26 mouse colorectal tumors; assay: Survival of CT26 tumor-bearing mice (in vivo anti-tumor effect)
Experimental: In Vivo Anti-Tumor Effect. The anticancer properties of the therapeutic agent were evaluated in vivo by determining the ability of the agent to suppress tumor growth and/or increase survival of tumor-bearing animals. In a typical experiment, 0.1-1×10^6 tumor cells, suspended in PBS containing 20% Matrigel, were injected subcutaneously in the right flank of each mouse. When the tumors became palpable, the animals were randomized into different groups and treatment began. In vivo tests routinely included a vehicle control group and different doses and/or routes of administration of the therapeutic agent. Tumor growth was assessed using calipers and the following formula: Tumor Volume=length×width×width×½
The Kaplan-Meier analysis was used to estimate the survival probability of the tumor-bearing animals.
C57BL/6 mice were injected subcutaneously in the right flank with 1×10^5 CT26 mouse colorectal tumor cells, suspended in PBS containing 20% Matrigel. The tumors were allowed to grow to ˜100 mm^3. The mice were randomized into two groups (n=6 animals/group): one group received vehicle control and the other group was treated with i.p. injections of 0.2 mg/kg Compound (6) twice a week (Tuesday-Thursday). The experiment continued for 27 days, at which point the mortality rate of control animals was 80%. […] The experiment was repeated (FIG. 6B). In FIG. 6B, treated animals received oral administrations of 3 mg/kg Compound (6) twice a day.

[9] = 3 mg/kg oral twice a day, end of experiment

Structure (SMILES): O=C(O)CC(=Cc1ccccc1)C(=O)O [(4), 2-(phenylmethylidene)butanedioic acid]
- cell proliferation of C6-IRG1-9 cells [1]: inhibition of proliferation

Structure (SMILES): CC(C)=C(CC(=O)O)C(=O)O [(3), 2-(propan-2-ylidene)butanedioic acid]
- cell proliferation of C6-IRG1-9 cells [1]: inhibition of proliferation

Structure (SMILES): C=CCC(C(=O)O)/C(=C/c1ccc(F)cc1)C(=O)O (stereo not drawn) [(7), 2-[(4-flurophenyl)methylidene]-3-(prop-2-ene-1-yl)butanedioic acid]
- cell proliferation of C6-IRG1-9 cells [1]: inhibition of proliferation

Structure (SMILES): O=C(O)CC(=Cc1ccc(F)cc1)C(=O)O [Compound (5), 2-[(4-fluorophenyl)methylidene]butanedioic acid]
- cell proliferation of C6-IRG1-9 cells [1]: inhibition of proliferation

Structure (SMILES): O=C(O)/C(=C\c1ccc(F)cc1)C(Cc1ccccc1)C(=O)O (stereo not drawn) [Compound (6), 2-benzyl-3-[(4-flurophenyl)methylidene]butanedioic acid]
- proliferation of hCD8+ T cells [2]: increased proliferation
- trimethylated H3K4 (H3K4me3/H3 ratio) [3]: depletion
- secretion of TNFα [4]: inhibits in vitro inflammation; also recorded: reduced secretion
- extracellular levels of itaconic acid [5]: suppressed
- intracellular levels of itaconic acid [5]: suppressed
- intratumoral frequency of M-MDSCs [6]: significantly reduces
- IFNγ synthesis ([7]; high (>100 μM) concentrations): decrease
- production of GZMB ([7]; low concentrations): increase production
- synthesis of INFγ following TCR activation ([7]; low concentrations, range of 0.1 nM to 100 µM): increased synthesis
- cell proliferation of C6-IRG1-9 cells [1]: inhibition of proliferation
- survival (Kaplan-Meier) of CT26 tumor-bearing mice ([8]; 0.2 mg/kg i.p. twice a week, 27 days, versus vehicle control, FIG. 6A): survival advantage
- animals with complete tumor regression [8, 9]: ⅙
- mice exhibiting slower tumor growth [8, 9]: ⅚
- survival of CT26 tumor-bearing mice ([8]; 3 mg/kg orally twice a day, FIG. 6B): increased survival

From US12060310B2, “Compositions and methods of using itaconic acid derivatives” (ERGON PHARMACEUTICALS, LLC, priority 2018, dated 2024)
